Laboratory results reported in paper doi:10.1101/2024.08.25.609621 (bioRxiv, 2024).
“And” between values parts separate entries of the source, which are not always exact repeats. Identical values can stand only once. “Also recorded” adds a separate entry of the source. Like-named read-outs stand apart in the source and are kept apart here.

How the values were obtained:
[1] = biological target: SARS-CoV-2 NSP3 macrodomain (Mac1) (Severe acute respiratory syndrome coronavirus 2, UniProt P0DTD1); experiment: biochemical; format: binding; conditions: for SARS CoV-2 macrodomain HTRF assay: Hillslope: dose-response fit
[2] = biological target: SARS-CoV-2 NSP3 macrodomain (Mac1), P43 crystal form (Severe acute respiratory syndrome coronavirus 2, UniProt P0DTD1); format: binding; conditions: for 1-BDC: PanDDA background density correction; for Total number of conformations: ligand conformations modeled in Mac1 crystal structure; for X-ray crystallography: Binding site: site where the ligand is bound in the X-ray crystal structure; for X-ray crystal structure: TRUE = crystal structure with ligand determined; for Binding site: site of Mac1 where ligand bound in crystal structure
[3] = crystal soak concentration 10 mM, event 1
[4] = crystal soak concentration 10 mM, P43 crystals
[5] = crystal soak concentration 10 mM
[6] = occupancy estimate from PanDDA BDC
[7] = preliminary screen, compound at 200 μM, mean of 3-4 technical replicates, read-out: % competition in HTRF assay
[8] = crystal soak, soak concentration 10 mM
[9] = occupancy estimate from PanDDA 1-BDC
[10] = Single dose, 200 μM, mean of three technical replicates
[11] = crystal soak concentration 3 mM, P43 crystals
[12] = crystal soak concentration 3 mM

Structure (SMILES) | Hill slope ([1]; HTRF dose-response fit, Mac1) | SARS CoV-2 macrodomain HTRF assay: Hillslope [1] | Occupancy difference (refined_occupancy - 2*(1-BDC)) [2] | Refined ligand occupancy (%) [2] [%] | 1-BDC [2] | PanDDA run, DMSO background map: 1-BDC [2, 3] | Pandda run, overall: Hit [2, 4] | Pandda run, overall: Modeled [2, 4] | Pandda run, overall: Modeling comment [2, 4] | PanDDA run, DMSO background map: Hit [2, 5] | PanDDA run, DMSO background map: Modeled [2, 5] | Total number of conformations [2] | 2*(1-BDC) (%) [2, 6] [%] | X-ray crystallography: Binding site [2] | 2*(1-BDC) (%) [2, 9] [%] | PanDDA run, DMSO background map: 1-BDC ([2]; event 1) | further results
CC(C)(O)C1C2CCC2CN1c1ncnc2[nH]ccc12 (centres unmarked) [AVI-4128] | 1.2 | 1.2 | 20 | 60 | 0.2 | 0.27 and 0.2 | TRUE | TRUE | Duplicate, not modeled; also recorded: Weak density for open conformation | TRUE | TRUE | 1 | 40 | Adenosine | – | – | Comment ([2]; comment on ligand modeling / Phe132 loop density): Weak density for open conformation
OC[C@@H]1C[C@H](O)CN1c1ncnc2[nH]ccc12 [AVI-610] | 1.2 | 1.2 | – | – | 0.21 | – | – | – | – | – | – | 1 | – | Adenosine | 42 | – | inhibition at 200 µM ([1]; Single dose, concentration 200 μM, read-out: SARS CoV-2 macrodomain HTRF assay: Average % competition): 56%; inhibition at 200 µM [1, 7]: 56%; Pandda run, overall: Modeled [2, 8]: TRUE; Pandda run, overall: Hit ([2]; crystal soak, soak concentration 10 mM, TRUE = ligand hit): TRUE; PanDDA run, DMSO background map: 1-BDC ([2]; soak concentration 10 mM): 0.34 and 0.31 and 0.21 and 0.26; PanDDA run, DMSO background map: Hit ([2]; soak concentration 10 mM): TRUE
Cc1c[nH]c2ncnc(NCC3(O)CCC(O)CC3)c12 (centres unmarked) [AVI-4329] | – | – | 12 | 30 | 0.09 | 0.09 and 0.11 | TRUE | TRUE | Duplicate, not modeled | TRUE | TRUE | 2 | 18 | Adenosine | – | – | IC50 ([1]; dose-response, read-out: SARS CoV-2 macrodomain HTRF assay: IC50): > 1000 µM
CN(CC1(O)CCOCC1)c1ncnc2[nH]ccc12 [AVI-4318] | 1.2 | 1.2 | 0 | 50 | 0.25 | – | – | – | – | – | – | 1 | 50 | Adenosine | – | 0.26 and 0.25 | –
OCC1CC=CCN1c1ncnc2[nH]ccc12 (centres unmarked) [AVI-6002] | 1.3 | 1.3 | 18 | 50 | 0.16 | – | – | – | – | – | – | 1 | 32 | Adenosine | – | 0.21 and 0.16 | –
CC(CNC(=O)c1ccc2c(c1)CCC(=O)N2)C(=O)O (centres unmarked) [AVI-328] | 1.3 | – | – | – | 0.11 | 0.11 and 0.1 | TRUE | TRUE | Duplicate, not modeled | TRUE | TRUE | 2 | – | – | 22 | 0.25 | Hill slope ([1]; Dose-response, SARS CoV-2 macrodomain HTRF assay): 1.3; inhibition at 200 µM ([1]; Single dose, 200 μM, mean of three technical replicates, read-out: Average % competition): 50%; inhibition at 200 µM [1, 7]: 50%; X-ray crystal structure [2]: TRUE; Binding site [2]: Adenosine
CCn1c(C)nnc1Sc1cnc2ccccc2n1 [AVI-297] | – | – | – | – | – | – | – | – | – | – | – | – | – | – | – | – | Average % competition [1, 10]: 0%; Pandda run, overall: Modeling comment [2, 8]: Only density for quinoxaline, not modeled; Pandda run, overall: Hit ([2]; crystal soak, soak concentration 10 mM, P43 crystals, TRUE = ligand-binding event identified): TRUE; PanDDA run, DMSO background map: Hit [2, 8]: TRUE; PanDDA run, DMSO background map: 1-BDC ([2]; crystal soak, soak concentration 10 mM, event 1): 0.05
Cc1ccc2c(c1)CC[C@@H](C(=O)Nc1nnc3n1CCCC3)O2 [AVI-329] | – | – | – | – | 0.07 | – | – | – | – | – | – | 1 | – | – | 14 | 0.17 | Average % competition [1, 10]: 9%; X-ray crystal structure [2]: TRUE; Pandda run, overall: Hit [2, 11]: TRUE; Pandda run, overall: Modeled [2, 11]: TRUE; Pandda run, overall: Modeling comment [2, 11]: Duplicate, not modeled; PanDDA run, DMSO background map: Hit [2, 12]: TRUE; PanDDA run, DMSO background map: Modeled [2, 12]: TRUE; PanDDA run, DMSO background map: 1-BDC ([2]; crystal soak concentration 3 mM, event 1): 0.08 and 0.07; Binding site [2]: Distal
